Data reported in patent US20260226049A1, “NITROGEN-CONTAINING HETEROCYCLIC COMPOUND, PREPARATION METHOD THEREFOR, AND USE THEREOF” (BIVISION PHARMACEUTICALS, INC, priority 2023, published 2026).
pEC50: −log10 of the molar value. Read-outs that look alike come from different tables or passages of the source.

Legend:
[1] = molecular target: recombinant human dipeptidyl peptidase IV (DPPIV) (Homo sapiens, UniProt P27487); experiment: Selective assay, protease inhibition (DPPIV); assay type: biochemical; conditions: substrate Gly-Pro-AMC; read-out: pIC50 (DPPIV) (converted)
Experimental: The specificity of the synthesized compounds against recombinant human dipeptidyl peptidase IV (DPPIV), fibroblast activation protein (FAP), or prolyl oligopeptidase (PREP) was expressed by their half-maximal inhibitory concentration (IC50) against the proteases.
1) The synthesized compound was dissolved in DMSO to a final concentration of 100 mM.
b) For DPPIV assay: The test compound was diluted to a 1 mM solution using a buffer of 25 mM Tris, 250 mM NaCl at pH 7.5.
2) The prepared 1 mM test compound solution was serially diluted (1:10) into a row of a 96-well plate using the corresponding buffer mentioned above.
3) The substrate was prepared as a DMSO stock solution (FAP and PREP: 2.5 mM Z-Gly-Pro-AMC (VWR, Cat. No. I-1145.0050BA) in DMSO; DPPIV: 100 mM Gly-Pro-AMC (VWR, Cat. No. 100042-646) in DMSO), and subsequently the substrate stock solution was diluted 20-fold using the corresponding buffer mentioned above.
4) The enzyme was diluted into the appropriate assay buffer. The final concentrations of DPPIV, FAP, and PREP were […], respectively. To each required well in columns 2-10, 180 μL was added separately. Column 1 (A, B, C) was prepared with 200 μL of the appropriate assay buffer as a control. […]
7) Fluorescence was measured at λex: 380, λem: 460. […]

[2] = tested on: HT1080 8 #cells; experiment: Cell competitive binding assay against ^177Lu-radiolabeled FAPi-46
Experimental: (1) HT1080 8 #cells in the logarithmic growth phase were prepared into a cell suspension, and the cell density was adjusted to 1×10^4/mL. 1 mL of the suspension was seeded into a 24-well cell culture plate. The plate was incubated overnight in a 37° C. incubator.
(2) The cell culture medium was aspirated, and the cells were washed once with PBS, followed by the addition of 975 μL of additive-free medium.
(3) To each well, 25 µL of ^177Lu-radiolabeled FAPi-46 (Nanchang Tanzhen Biotechnology Co., Ltd., CAS: 2374782-04-2) at a fixed concentration (final concentration in culture medium: 1.35 μCi/mL) and varying concentrations (final concentrations in culture medium: 1000 ng/mL, 100 ng/ml, 10 ng/ml, 1 ng/mL, 0.1 ng/ml, 0.01 ng/mL, 0.001 ng/mL, 0 ng/ml) of unlabeled test compounds JHH8, JHDB8, and JHH9 were added.
(4) The mixture was incubated on ice for 2 hours.
(5) The cells were washed three times with ice-cold PBS.
(6) The cells were lysed with 0.5 mL of 1 M sodium hydroxide, washed twice with 0.5 mL of PBS, and the sodium hydroxide solution (0.5 mL) and PBS solutions (0.5 mL×2) were collected for uptake counting.
The control compound was OncoFAP-DOTAGA (structural formula: […]
The cell competitive binding of compounds JHH5, JHH4, JHH10, JHH8, H4b, H5b, and H8b was tested in the same batch using the above method, and the experimental results are shown in Table 3 and FIG. 3.

Chain of recombinant human dipeptidyl peptidase IV (DPPIV) (P27487 whole entry): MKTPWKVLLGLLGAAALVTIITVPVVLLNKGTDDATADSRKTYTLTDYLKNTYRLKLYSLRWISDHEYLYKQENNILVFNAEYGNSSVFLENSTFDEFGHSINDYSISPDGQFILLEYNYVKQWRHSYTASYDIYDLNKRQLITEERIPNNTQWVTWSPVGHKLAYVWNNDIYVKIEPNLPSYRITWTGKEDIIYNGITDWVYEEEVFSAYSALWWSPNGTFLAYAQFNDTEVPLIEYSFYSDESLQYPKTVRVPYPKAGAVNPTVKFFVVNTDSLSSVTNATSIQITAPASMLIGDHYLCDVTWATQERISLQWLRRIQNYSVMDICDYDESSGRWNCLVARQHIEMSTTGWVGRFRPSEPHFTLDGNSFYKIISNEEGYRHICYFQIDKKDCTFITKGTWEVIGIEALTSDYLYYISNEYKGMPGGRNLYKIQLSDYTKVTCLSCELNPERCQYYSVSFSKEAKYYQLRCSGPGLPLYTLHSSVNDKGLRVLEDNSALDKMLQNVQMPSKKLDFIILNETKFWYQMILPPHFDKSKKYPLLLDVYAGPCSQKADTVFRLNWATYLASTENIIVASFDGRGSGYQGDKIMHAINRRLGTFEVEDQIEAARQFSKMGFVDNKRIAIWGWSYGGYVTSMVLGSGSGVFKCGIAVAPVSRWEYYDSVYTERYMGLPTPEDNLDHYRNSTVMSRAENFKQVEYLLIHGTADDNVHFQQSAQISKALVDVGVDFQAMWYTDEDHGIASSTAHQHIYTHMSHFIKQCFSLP

IC50 [1]: > 1000 nM | pEC50 ([2]; EC50 (ng/mL) converted with molecular weight, read-out: EC50): 8.74 | EC50 ([2]; competition with ^177Lu-FAPi-46, on ice 2 hours): 1.726 ng/mL
Structure (SMILES): N#C[C@@H]1CC(F)(F)CN1C(=O)CNC(=O)c1cccc2c1CCN(C(=O)CCC(=O)NCCNC(=O)CCC(C(=O)O)N1CCN(CC(=O)O)CCN(CC(=O)O)CCN(CC(=O)O)CC1)C2 (stereo partly drawn) [JHH5]
